Consider 28 compounds from patent US9763957B2, “Autotaxin inhibitors” (Novartis AG, priority 2013, dated 2017).

This assay concerns the target Recombinant human ATX (Homo sapiens (Human), UniProt Q13822). Kind of assay: ATX inhibition assay (choline release, Amplex Red fluorescence). The class given is biochemical. To be noted: ATX 10 nM, LPC 18:1 10 μM, 37° C., 20 min pre-incubation; mean of n≧2. An outline of the steps:
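Activity was taken from the slope of resorufin fluorescence (530/590 nm, read every 2 min for 40 min at 37 °C) produced by choline liberated from 10 μM oleoyl LPC.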
Consider `Cc1nnc(Cc2cc(Cl)ccc2/C=C/C(=O)N2CCC(Cc3nnc(C)o3)CC2)o1` [Example 13, (E)-3-(4-Chloro-2-((5-methyl-1,3,4-oxadiazol-2-yl)methyl)phenyl)-1-(4-((5-methyl-1,3,4-oxadiazol-2-yl)methyl)piperidin-1-yl)prop-2-en-1-one], for which the IC50 (in general, the midpoint of a concentration-inhibition curve) is 2360 nM.
Turning to `CNC(=O)COC1CCN(C(=O)/C=C/c2ccc(Cl)cc2Cn2nnc(C)n2)CC1` [Example 49.19, (E)-2-((1-(3-(4-Chloro-2-((5-methyl-2H-tetrazol-2-yl)methyl)phenyl)acryloyl)piperidin-4-yl)oxy)-N-methylacetamide], the IC50 stood at 176 nM.
`Cc1nnn(Cc2cc(C(F)(F)F)ccc2/C=C/C(=O)N2C[C@@H](F)C[C@H]2CO)n1` [Example 131, (E)-1-((2S,4S)-4-Fluoro-2-(hydroxymethyl)pyrrolidin-1-yl)-3-(2-((5-methyl-2H-tetrazol-2-yl)methyl)-4-(trifluoromethyl)phenyl)prop-2-en-1-one]: the IC50 was determined as 23 nM.
The result for `Cc1nnn(Cc2cc(Cl)ccc2/C=C/C(=O)N2CCC(c3nnc(C4CC4)o3)CC2)n1` [Example 96, (E)-3-(4-Chloro-2-((5-methyl-2H-tetrazol-2-yl)methyl)phenyl)-1-(4-(5-cyclopropyl-1,3,4-oxadiazol-2-yl)piperidin-1-yl)prop-2-en-1-one] reads 8.3 nM; that for `Cc1nnn(Cc2cc(Cl)ccc2/C=C/C(=O)N2CCC(N3CCNC3=O)CC2)n1` [Example 49.3, (E)-1-(1-(3-(4-Chloro-2-((5-methyl-2H-tetrazol-2-yl)methyl)phenyl)acryloyl)piperidin-4-yl)imidazolidin-2-one], 129 nM; that for `Cc1nnn(Cc2cc(C(F)(F)F)ccc2/C=C/C(=O)N2CCC(N3CCCCC3=O)CC2)n1` [Example 97, (E)-1′-(3-(2-((5-Methyl-2H-tetrazol-2-yl)methyl)-4-(trifluoromethyl)phenyl)acryloyl)-[1,4′-bipiperidin]-2-one], 23 nM.
The result for `Cc1nnn(Cc2cc(Cl)ccc2/C=C/C(=O)N2CC3CCC2CN3Cc2coc(C)n2)n1` (stereo not shown) [Example 61, (E)-3-(4-Chloro-2-((5-methyl-2H-tetrazol-2-yl)methyl)phenyl)-1-(5-((2-methyloxazol-4-yl)methyl)-2,5-diazabicyclo[2.2.2]octan-2-yl)prop-2-en-1-one] reads 45 nM; that for `Cc1nnn(Cc2cc(Cl)ccc2/C=C/C(=O)N2CCN(Cc3nc4ccccc4n3C)CC2)n1` [Example 140.4, (E)-3-(4-Chloro-2-((5-methyl-2H-tetrazol-2-yl)methyl)phenyl)-1-(4-((1-methyl-1H-benzo[d]imidazol-2-yl)methyl)piperazin-1-yl)prop-2-en-1-one], 43 nM; that for `Cc1nnn(Cc2cc(Cl)ccc2/C=C/C(=O)N2CCN(c3ncccn3)CC2)n1` [Example 49.1, (E)-3-(4-Chloro-2-((5-methyl-2H-tetrazol-2-yl)methyl)phenyl)-1-(4-(pyrimidin-2-yl)piperazin-1-yl)prop-2-en-1-one], 20 nM.
Consider `Cc1noc(CN2CCN(C(=O)/C=C/c3ccc(Cl)cc3Cn3nnc(C)n3)[C@H](C)C2)n1` [Example 114, (R,E)-3-(4-Chloro-2-((5-methyl-2H-tetrazol-2-yl)methyl)phenyl)-1-(2-methyl-4-((3-methyl-1,2,4-oxadiazol-5-yl)methyl)piperazin-1-yl)prop-2-en-1-one], for which the IC50 was 3.9 nM.
As for `Cc1nnn(Cc2cc(Cl)ccc2/C=C/C(=O)N2CCC(O)(Cn3cc(C(=O)N4CCOCC4)cn3)CC2)n1` [Example 14, (E)-3-(4-Chloro-2-((5-methyl-2H-tetrazol-2-yl)methyl)phenyl)-1-(4-hydroxy-4-((4-(morpholine-4-carbonyl)-1H-pyrazol-1-yl)methyl)piperidin-1-yl)prop-2-en-1-one], the figure is 12 nM; as for `Cc1nnn(Cc2cc(Cl)ccc2/C=C/C(=O)N2CCC(F)C2)n1` (stereo not shown) [Example 49.5, (E)-3-(4-Chloro-2-((5-methyl-2H-tetrazol-2-yl)methyl)phenyl)-1-(3-fluoropyrrolidin-1-yl)prop-2-en-1-one], 320 nM.
The result for `Cc1nnn(Cc2cc(Cl)ccc2/C=C/C(=O)N2CCC(C(O)c3ccc(Cl)cc3)CC2)n1` (single isomer, unassigned) [Example 66b, ((R or S), E)-3-(4-Chloro-2-((5-methyl-2H-tetrazol-2-yl)methyl)phenyl)-1-(4-((4-chlorophenyl)(hydroxy)methyl)piperidin-1-yl)prop-2-en-1-one] reads 4.6 nM.
`CNC(=O)[C@@H]1CCCN1C(=O)/C=C/c1ccc(C(F)(F)F)cc1Cn1nnc(C)n1` [Example 90, (S,E)-N-Methyl-1-(3-(2-((5-methyl-2H-tetrazol-2-yl)methyl)-4-(trifluoromethyl)phenyl)acryloyl)pyrrolidine-2-carboxamide]: the IC50 was 49 nM.
The result for `Cc1nnn(Cc2cc(Cl)ccc2/C=C/C(=O)N2CCC(n3nnnc3C)CC2)n1` [Example 12, (E)-3-(4-Chloro-2-((5-methyl-2H-tetrazol-2-yl)methyl)phenyl)-1-(4-(5-methyl-1H-tetrazol-1-yl)piperidin-1-yl)prop-2-en-1-one] reads 157 nM.
On to `Cc1nnn(Cc2cc(Cl)ccc2/C=C/C(=O)N2CCC(O)(Cc3ccccc3)CC2)n1` [Example 138, (E)-1-(4-Benzyl-4-hydroxypiperidin-1-yl)-3-(4-chloro-2-((5-methyl-2H-tetrazol-2-yl)methyl)phenyl)prop-2-en-1-one-N], for which the IC50 worked out at 6.3 nM.
For the compound `Cc1nnn(Cc2cc(C(F)(F)F)ccc2OCC(=O)N2CCC(c3noc(C)n3)CC2)n1` [Example 36, 1-(4-(5-Methyl-1,2,4-oxadiazol-3-yl)piperidin-1-yl)-2-(2-((5-methyl-2H-tetrazol-2-yl)methyl)-4-(trifluoromethyl)phenoxy)ethanone], the IC50 came out at 171 nM.
As for `Cc1nnn(Cc2cc(Cl)ccc2/C=C/C(=O)N2CCCC(C(N)=O)C2)n1` (stereo not shown) [Example 49.8, (E)-1-(3-(4-Chloro-2-((5-methyl-2H-tetrazol-2-yl)methyl)phenyl)acryloyl)piperidine-3-carboxamide], the figure is 354 nM; as for `Cc1noc(C2CCCCN2C(=O)/C=C/c2ccc(C(F)(F)F)cc2Cn2nnc(C)n2)n1` (single isomer, unassigned) [Example 5a, (R,E)-1-(2-(3-methyl-1,2,4-oxadiazol-5-yl)piperidin-1-yl)-3-(2-((5-methyl-2H-tetrazol-2-yl)methyl)-4-(trifluoromethyl)phenyl)prop-2-en-1-one or (S,E)-1-(2-(3-methyl-1,2,4-oxadiazol-5-yl)piperidin-1-yl)-3-(2-((5-methyl-2H-tetrazol-2-yl)methyl)-4-(trifluoromethyl)phenyl)prop-2-en-1-one], 3.5 nM.
The result for `Cc1nnn(Cc2cc(OC(F)(F)F)ccc2/C=C/C(=O)N2CCC(Cc3nnc(C)o3)CC2)n1` [Example 56, (E)-1-(4-((5-Methyl-1,3,4-oxadiazol-2-yl)methyl)piperidin-1-yl)-3-(2-((5-methyl-2H-tetrazol-2-yl)methyl)-4-(trifluoromethoxy)phenyl)prop-2-en-1-one] reads 12 nM; that for `Cc1nnn(Cc2cc(Cl)ccc2/C=C/C(=O)N2CCN(Cc3coc(C)n3)C[C@H]2C)n1` [Example 62, (R,E)-3-(4-Chloro-2-((5-methyl-2H-tetrazol-2-yl)methyl)phenyl)-1-(2-methyl-4-((2-methyloxazol-4-yl)methyl)piperazin-1-yl)prop-2-en-1-one], 4.2 nM; that for `Cc1nnn(Cc2cc(Cl)ccc2/C=C/C(=O)N2CCC(OCC(=O)N3CCCCC3)CC2)n1` [Example 49.10, (E)-3-(4-Chloro-2-((5-methyl-2H-tetrazol-2-yl)methyl)phenyl)-1-(4-(2-oxo-2-(piperidin-1-yl)ethoxy)piperidin-1-yl)prop-2-en-1-one], 24 nM.
Take `COCC(=O)N(C)C1CCN(C(=O)/C=C/c2ccc(C(F)(F)F)cc2Cn2nnc(C)n2)CC1` [Example 84, (E)-2-Methoxy-N-methyl-N-(1-(3-(2-((5-methyl-2H-tetrazol-2-yl)methyl)-4-(trifluoromethyl)phenyl)acryloyl)piperidin-4-yl)acetamide]: the IC50 amounted to 8.1 nM.
As for `Cc1noc(CN2CCN(C(=O)/C=C/c3ccc(C(F)(F)F)cc3Cn3nnc(C)n3)CC2)n1` [Example 88, (E)-1-(4-((3-Methyl-1,2,4-oxadiazol-5-yl)methyl)piperazin-1-yl)-3-(2-((5-methyl-2H-tetrazol-2-yl)methyl)-4-(trifluoromethyl)phenyl)prop-2-en-1-one], the figure is 16 nM; as for `Cc1nnn(Cc2cc(Cl)ccc2/C=C/C(=O)N2CC(S(C)(=O)=O)C2)n1` [Example 49.2, (E)-3-(4-Chloro-2-((5-methyl-2H-tetrazol-2-yl)methyl)phenyl)-1-(3-(methylsulfonyl)azetidin-1-yl)prop-2-en-1-one], 477 nM.
The result for `Cc1nnn(Cc2cc(Cl)ccc2/C=C/C(=O)N2CCC(Oc3ccc(C(F)(F)F)cn3)CC2)n1` [Example 135, (E)-3-(4-Chloro-2-((5-methyl-2H-tetrazol-2-yl)methyl)phenyl)-1-(4-((5-(trifluoromethyl)pyridin-2-yl)oxy)piperidin-1-yl)prop-2-en-1-one] reads 327 nM; that for `Cc1nnn(Cc2cc(Cl)ccc2/C=C/C(=O)N2CCC(CCNC(=O)c3c[nH]nc3C(F)(F)F)CC2)n1` [Example 146, (E)-N-(2-(1-(3-(4-Chloro-2-((5-methyl-2H-tetrazol-2-yl)methyl)phenyl)acryloyl)piperidin-4-yl)ethyl)-3-(trifluoromethyl)-1H-pyrazole-4-carboxamide], 17 nM; that for `Cc1nnn(Cc2cc(Cl)ccc2/C=C/C(=O)N2CCC(CCN(C)C(=O)c3c[nH]c(=O)o3)CC2)n1` [Example 148, (E)-N-(2-(1-(3-(4-Chloro-2-((5-methyl-2H-tetrazol-2-yl)methyl)phenyl)acryloyl)piperidin-4-yl)ethyl)-N-methyl-2-oxo-2,3-dihydrooxazole-5-carboxamide], 8.9 nM.
